Measured values published in patent publication US6737383B1, “Herbicidal oxadiazolidines” (priority 1999, dated 2004).

Tests used:
blackgrass = experiment: Test B pre/postemergence blackgrass; assay type: in vivo, Alopecurus myosuroides
Summary of the method: (§1)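 Response is a visual 0-to-10 score relative to untreated plants, where 0 means no effect and 10 means complete control, taken twelve to sixteen days after application. Treatments went onto soil at planting and onto foliage of 1- to 4-leaf plants, using a surfactant-containing non-phytotoxic solvent.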

wheat = experiment: Test B pre/postemergence wheat; assay type: in vivo, Triticum aestivum
Summary of the method: as §1

wild oat = experiment: Test B pre/postemergence wild oat; assay type: in vivo, Avena fatua
Summary of the method: as §1

soybean = experiment: Test B pre/postemergence soybean; assay type: in vivo, Glycine max
Summary of the method: as §1

crabgrass = experiment: Test B pre/postemergence crabgrass; assay type: in vivo, Digitaria sanguinalis
Summary of the method: as §1

purple nutsedge = experiment: Test B pre/postemergence purple nutsedge; assay type: in vivo, Cyperus rotundus
Summary of the method: as §1

pigweed = experiment: Test B pre/postemergence pigweed; assay type: in vivo, Amaranthus retroflexus
Summary of the method: as §1

bedstraw = experiment: Test B pre/postemergence bedstraw; assay type: in vivo, Galium aparine; conditions: Postemergence; for Plant response rating, Bedstraw: scale 0 to 10, 0 is no effect, 10 is complete control; for Bedstraw plant response rating: scale of 0 to 10 where 0 is no effect and 10 is complete control
Summary of the method: as §1

cocklebur = experiment: Test B pre/postemergence cocklebur; assay type: in vivo, Xanthium strumarium
Summary of the method: as §1

morningglory = experiment: Test B pre/postemergence morningglory; assay type: in vivo, Ipomoea hederacea
Summary of the method: as §1

corn = experiment: Test B pre/postemergence corn; assay type: in vivo, Zea mays
Summary of the method: as §1

rape = experiment: Test B pre/postemergence rape; assay type: in vivo, Brassica napus
Summary of the method: as §1

bamyardgrass = experiment: Test B flood test barnyardgrass; assay type: in vivo, Echinochloa crus-galli
Summary of the method: (§2)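 Flood test on plants grown to the 2-leaf stage; treated plants kept in greenhouse twelve to sixteen days, then visually rated against controls on a 0 (no effect) to 10 (complete control) scale.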

surinam grass = experiment: Test B pre/postemergence surinam grass; assay type: in vivo, Brachiaria decumbens
Summary of the method: as §1

giant foxtail = experiment: Test B pre/postemergence giant foxtail; assay type: in vivo, Setaria faberii
Summary of the method: as §1

duck salad = experiment: Test B flood test duck salad; assay type: in vivo, Heteranthera limosa
Summary of the method: as §2

rice = experiment: Test B flood test rice; assay type: in vivo, Oryza sativa
Summary of the method: as §2

sugar beet = experiment: Test B pre/postemergence sugar beet; assay type: in vivo, Beta vulgaris
Summary of the method: as §1

smallflower flatsedge = experiment: Test B flood test smallflower flatsedge; assay type: in vivo, Cyperus difformis
Summary of the method: as §2

velvetleaf = experiment: Test B pre/postemergence velvetleaf; assay type: in vivo, Abutilon theophrasti
Summary of the method: as §1

[1] = Postemergence, Rate 125 g/ha, scale 0 to 10, 0 is no effect, 10 is complete control
[2] = Postemergence, Rate 250 g/ha, scale 0 to 10, 0 is no effect, 10 is complete control
[3] = Postemergence, Rate 500 g/ha, scale of 0 to 10 where 0 is no effect and 10 is complete control
[4] = Preemergence, Rate 62 g/ha, scale 0 to 10 (0 no effect, 10 complete control)
[5] = Preemergence, Rate 125 g/ha, scale of 0 to 10 where 0 is no effect and 10 is complete control
[6] = Preemergence, Rate 250 g/ha, scale of 0 to 10 where 0 is no effect and 10 is complete control
[7] = Preemergence, Rate 500 g/ha, scale 0 to 10, 0 is no effect, 10 is complete control
[8] = Rate 62 g/ha, Postemergence, scale of 0 to 10 where 0 is no effect and 10 is complete control
[9] = Preemergence, Rate 250 g/ha, scale 0 to 10, 0 is no effect, 10 is complete control
[10] = Rate 62 g/ha, flood test species, Pre-emergence, visual evaluation after twelve to sixteen days
[11] = Rate 125 g/ha, under heading Pre-emergence, flood test species, visual evaluation after twelve to sixteen days
[12] = Rate 250 g/ha, Pre-emergence, flood-test species, scale 0 to 10, 0 is no effect, 10 is complete control
[13] = Rate 500 g/ha, Pre-emergence, flood test species, scale 0 to 10 (0 no effect, 10 complete control)

## CC(C)N(C(=O)n1oc(=O)n(C(C)CCl)c1=O)c1ccc(F)cc1F (centres unmarked) [Compound 408]
blackgrass; [1]
  Plant response rating, Blackgrass: 2
blackgrass; [2]
  Plant response rating, Blackgrass: 9
blackgrass; [3]
  Blackgrass plant response rating: 10
blackgrass; [4]
  Plant response rating, Blackgrass: 6
blackgrass; [5]
  Plant response rating, Blackgrass: 9
blackgrass; [6]
  Blackgrass plant response rating: 9
blackgrass; [7]
  Blackgrass plant response rating: 10
blackgrass; [8]
  Blackgrass plant response rating: 0
wheat; [3]
  Wheat plant response rating: 2
wheat; [4]
  Plant response rating, Wheat: 0
wheat; [5]
  Plant response rating, Wheat: 0
wheat; [9]
  Wheat plant response rating: 4
wheat; [7]
  Wheat plant response rating: 7
Wild oat; [3]
  Wild oats plant response rating: 3
Wild oat; [4]
  Plant response rating, Wild oats: 0
Wild oat; [5]
  Plant response rating, Wild oats: 2
Wild oat; [9]
  Wild oats plant response rating: 5
Wild oat; [7]
  Wild oats plant response rating: 8
soybean; [2]
  Plant response rating, Soybean: 3
soybean; [3]
  Soybean plant response rating: 4
soybean; [4]
  Plant response rating, Soybean: 0
soybean; [5]
  Plant response rating, Soybean: 0
soybean; [9]
  Soybean plant response rating: 0
soybean; [7]
  Soybean plant response rating: 0
crabgrass; [1]
  Plant response rating, Crabgrass: 4
crabgrass; [2]
  Plant response rating, Crabgrass: 8
crabgrass; [3]
  Crabgrass plant response rating: 9
crabgrass; [4]
  Plant response rating, Crabgrass: 9
crabgrass; [5]
  Plant response rating, Crabgrass: 10
crabgrass; [9]
  Crabgrass plant response rating: 10
crabgrass; [7]
  Crabgrass plant response rating: 10
crabgrass; [8]
  Crabgrass plant response rating: 3
Purple nutsedge; [2]
  Plant response rating, Nutsedge: 2
Purple nutsedge; [3]
  Nutsedge plant response rating: 3
Purple nutsedge; [4]
  Plant response rating, Nutsedge: 0
Purple nutsedge; [5]
  Plant response rating, Nutsedge: 0
Purple nutsedge; [9]
  Nutsedge plant response rating: 0
Purple nutsedge; [7]
  Nutsedge plant response rating: 0
pigweed; [2]
  Plant response rating, Redroot pigweed: 0
pigweed; [3]
  Redroot pigweed plant response rating: 7
pigweed; [4]
  Plant response rating, Redroot pigweed: 4
pigweed; [5]
  Plant response rating, Redroot pigweed: 6
pigweed; [9]
  Redroot pigweed plant response rating: 10
pigweed; [7]
  Redroot pigweed plant response rating: 10
bedstraw; Rate 125 g/ha
  Plant response rating, Bedstraw: 6
bedstraw; Rate 250 g/ha
  Plant response rating, Bedstraw: 8
bedstraw; Rate 500 g/ha
  Bedstraw plant response rating: 9
bedstraw; Rate 62 g/ha
  Bedstraw plant response rating: 6
cocklebur; [1]
  Plant response rating, Cocklebur: 0
cocklebur; [2]
  Plant response rating, Cocklebur: 0
cocklebur; [3]
  Cocklebur plant response rating: 3
cocklebur; [4]
  Plant response rating, Cocklebur: 0
cocklebur; [5]
  Plant response rating, Cocklebur: 0
cocklebur; [9]
  Cocklebur plant response rating: 0
cocklebur; [7]
  Cocklebur plant response rating: 0
cocklebur; [8]
  Cocklebur plant response rating: 0
morningglory; [2]
  Plant response rating, Morningglory: 7
morningglory; [3]
  Morningglory plant response rating: 7
morningglory; [4]
  Plant response rating, Morningglory: 0
morningglory; [5]
  Plant response rating, Morningglory: 0
morningglory; [9]
  Morningglory plant response rating: 0
morningglory; [7]
  Morningglory plant response rating: 7
corn; [1]
  Plant response rating, Corn: 0
corn; [2]
  Plant response rating, Corn: 0
corn; [3]
  Corn plant response rating: 0
corn; [4]
  Plant response rating, Corn: 0
corn; [5]
  Plant response rating, Corn: 2
corn; [9]
  Corn plant response rating: 4
corn; [7]
  Corn plant response rating: 8
corn; [8]
  Corn plant response rating: 0
rape; [3]
  Rape plant response rating: 2
rape; [4]
  Plant response rating, Rape: 0
rape; [5]
  Plant response rating, Rape: 0
rape; [9]
  Rape plant response rating: 6
rape; [7]
  Rape plant response rating: 8
bamyardgrass; [10]
  Plant response rating, Barnyardgrass (0 to 10 scale, 0 is no effect, 10 is complete control): 0
bamyardgrass; [11]
  Barnyardgrass plant response rating (0 to 10 scale, 0 is no effect, 10 is complete control): 0
bamyardgrass; [12]
  Barnyardgrass plant response rating: 0
bamyardgrass; [13]
  Barnyardgrass plant response rating: 0
Surinam grass; [1]
  Plant response rating, B. signalgrass: 0
Surinam grass; [2]
  Plant response rating, B. signalgrass: 0
Surinam grass; [3]
  B. signalgrass plant response rating: 5
Surinam grass; [4]
  Plant response rating, B. signalgrass: 0
Surinam grass; [5]
  Plant response rating, B. signalgrass: 2
Surinam grass; [6]
  B. signalgrass plant response rating: 4
Surinam grass; Preemergence, Rate 500 g/ha, scale of 0 to 10 where 0 is no effect and 10 is complete control
  B. signalgrass plant response rating: 7
Surinam grass; [8]
  B. signalgrass plant response rating: 0
Giant foxtail; [1]
  Plant response rating, Giant foxtail: 9
Giant foxtail; [2]
  Plant response rating, Giant foxtail: 9
Giant foxtail; [3]
  Giant foxtail plant response rating: 9
Giant foxtail; [4]
  Plant response rating, Giant foxtail: 10
Giant foxtail; [5]
  Plant response rating, Giant foxtail: 10
Giant foxtail; [9]
  Giant foxtail plant response rating: 10
Giant foxtail; [7]
  Giant foxtail plant response rating: 10
Giant foxtail; [8]
  Giant foxtail plant response rating: 9
Duck salad; [10]
  Plant response rating, Ducksalad (0 to 10 scale, 0 is no effect, 10 is complete control): 0
Duck salad; [11]
  Ducksalad plant response rating (0 to 10 scale, 0 is no effect, 10 is complete control): 0
Duck salad; [12]
  Ducksalad plant response rating: 0
Duck salad; [13]
  Ducksalad plant response rating: 0
rice; [10]
  Plant response rating, Rice (0 to 10 scale, 0 is no effect, 10 is complete control): 0
rice; [11]
  Rice plant response rating (0 to 10 scale, 0 is no effect, 10 is complete control): 0
rice; [12]
  Rice plant response rating: 0
rice; [13]
  Rice plant response rating: 0
Sugar beet; [2]
  Plant response rating, Sugarbeets: 0
Sugar beet; [3]
  Sugarbeets plant response rating: 6
Sugar beet; [4]
  Plant response rating, Sugarbeets: 2
Sugar beet; [5]
  Plant response rating, Sugarbeets: 4
Sugar beet; [9]
  Sugarbeets plant response rating: 8
Sugar beet; [7]
  Sugarbeets plant response rating: 8
Smallflower flatsedge; [10]
  Plant response rating, S. Flatsedge (0 to 10 scale, 0 is no effect, 10 is complete control): 0
Smallflower flatsedge; [11]
  S. Flatsedge plant response rating (0 to 10 scale, 0 is no effect, 10 is complete control): 0
Smallflower flatsedge; [12]
  S. Flatsedge plant response rating: 0
Smallflower flatsedge; [13]
  S. Flatsedge plant response rating: 0
velvetleaf; [2]
  Plant response rating, Velvetleaf: 0
velvetleaf; [3]
  Velvetleaf plant response rating: 4
velvetleaf; [4]
  Plant response rating, Velvetleaf: 0
velvetleaf; [5]
  Plant response rating, Velvetleaf: 1
velvetleaf; [9]
  Velvetleaf plant response rating: 7
velvetleaf; [7]
  Velvetleaf plant response rating: 7
